Experimental data: patent US20180140579A1, “SACUBITRIL AND VALSARTAN FOR TREATING METABOLIC DISEASE” (NOVARTIS AG, priority 2015, published 2018)
Values joined by “and” are separate entries in the source; they are usually repeats but may differ in a detail not shown here. Equal entries are not always repeated.

Assays:
[1] = tested on: patients with mild-to-moderate hypertension and abdominal adiposity; experiment: Hyperinsulinemic-euglycemic glucose clamp (insulin sensitivity), clinical study NCT01631864; type: in vivo, human; conditions: for Glucose infusion rate by body weight (Mbw), Day 56, adjusted mean / Insulin sensitivity index, Day 56, adjusted mean: Day 56 (week 8)
Experimental: (§1) At baseline and week 8, peripheral insulin sensitivity (hyperinsulinemic-euglycemic glucose clamp), abdominal subcutaneous adipose tissue lipolysis (microdialysis), whole-body lipolysis (glycerol tracer kinetics), energy expenditure and substrate oxidation (indirect calorimetry) were determined.
Patients were also stratified into 4 groups based on the baseline Homeostasis Model Assessment of Insulin Resistance (HOMA-IR) (<2.5 and ≥2.5) and use of statin therapy within 8 weeks prior to randomization.
The HEGC assessment was performed on Day −1 (baseline) and on Day 56 under fasting conditions. A dorsal hand vein was catheterized and kept warm for arterialized blood sampling and the contralateral arm was cathetered for the infusion of glucose and insulin. […] Blood samples to determine glucose levels during the HEGC were collected continuously (automated clamp) or at approximately 5-min intervals (manual clamp). The last 30 minutes (minutes 90-120) of the clamp were considered as the steady state period and the mean glucose infusion rate was calculated for this time period.
The insulin sensitivity index (SI) was calculated from steady-state glucose infusion rates, and plasma insulin and glucose concentrations at steady-state (SI: Glucose infusion rate/[plasma glucose×plasma insulin], μg/kg*min/[mmol/L*pmol/L]). Furthermore whole-body glucose disposal rate (M, mg/min) was calculated from the mean glucose infusion rate at steady state to assess peripheral insulin sensitivity. Finally, the metabolic clearance rate (MCR) was calculated from M-value and the mean blood glucose concentration (BG) at steady-state (MCR: M/BG, min*mmol). The glucose disposal rate was also expressed per unit of insulin at steady-state, calculated from M-value and plasma insulin concentrations (M/l, U/min).
Differences between treatments for change in SI from baseline were analyzed as above.

[2] = tested on: patients with mild-to-moderate hypertension and abdominal adiposity; experiment: Abdominal subcutaneous adipose tissue microdialysis (local lipolysis); type: in vivo, human; conditions: for Glucose in adipose tissue microdialysate, adjusted geometric mean ratio Day 57 vs Day 1 / Lactate in adipose tissue microdialysate, adjusted geometric mean ratio Day 57 vs Day 1 / Glycerol (free) in adipose tissue microdialysate, adjusted geometric mean ratio Day 57 vs Day 1 / interstitial glycerol levels at week 8 (subcutaneous adipose tissue lipolysis at rest): at rest; for Glycerol (free) in adipose tissue microdialysate, adjusted geometric mean ratio Day 57 vs Day 1: 8 weeks treatment; for interstitial glycerol levels at week 8 (subcutaneous adipose tissue lipolysis at rest): p=0.003 between groups
Experimental: Assessment of lipolysis at rest was performed on Day 1 prior to first dosage and on Day 57. Abdominal subcutaneous adipose tissue lipolysis was assessed by microdialysis in the fasting condition. […] Microdialysate samples for measurement of the analytes were collected at 30 minutes and 45 minutes in the flow calibration phase. Glycerol (an indicator of local lipolysis), glucose, and lactate concentrations were measured in the microdialysate, reflecting the interstitial concentrations in the adipose tissue. The ethanol ratio (ratio of ethanol concentration in dialysate to ethanol concentration in perfusate) was measured as an indicator of adipose tissue blood flow. For abdominal subcutaneous adipose tissue microdialysate data (ethanol ratio, dialysate lactate, dialysate glucose, and plasma glycerol, glycerol, NEFA, glucose, insulin, adrenalin, and noradrenalin) at rest, data was analyzed using repeated measures analysis on log transformed values with treatment, visit, time and treatment*visit*time interaction as fixed effects.

[3] = tested on: patients with mild-to-moderate hypertension and abdominal adiposity; experiment: Energy expenditure and substrate oxidation by indirect calorimetry; type: in vivo, human; conditions: LCZ696 400 mg QD or amlodipine 10 mg QD; for Respiratory quotient (carbon dioxide to oxygen ratio), Day 57 adjusted mean (95% CI): Day 57, at rest
Experimental: as §1
Energy expenditure and substrate oxidation were assessed in parallel by indirect calorimetry using a ventilated hood system. The ventilated hood measurements were recorded for 30 minutes in the resting state (during the flow calibration phase).

[4] = tested on: patients with mild-to-moderate hypertension and abdominal adiposity; experiment: Blood pressure monitoring (mean seated BP); type: in vivo, human; conditions: Day 57 vs baseline; LCZ696 400 mg QD or amlodipine 10 mg QD
Text: Seating BP was monitored at screening and throughout the study using the same equipment. During the home stay period, patients were given a home measurement device and instructed to monitor BP twice weekly at approximately the same time each morning (7-9 AM).

[5] = tested on: patients with mild-to-moderate hypertension and abdominal adiposity; experiment: Safety assessments (adverse events); type: in vivo, human; conditions: for Discontinuations due to AEs: LCZ696 N = 50, amlodipine N = 48
Experimental: Safety assessments included adverse events (AEs) and serious adverse events (SAEs) and were conducted throughout the study by regular monitoring of hematology, blood chemistry and urine analysis as well as assessments of vital signs (BP and pulse measurements), ECG, physical condition and body weight. The pharmacodynamics (PD) analysis set included all patients with available PD data and no protocol deviations with relevant impact on PD data. The safety analysis set included all patients who received any of the study drugs.

[6] = tested on: patients with mild-to-moderate hypertension and abdominal adiposity; experiment: Abdominal subcutaneous adipose tissue microdialysis (local lipolysis); type: in vivo, human
[7] = tested on: patients with impaired glucose tolerance and cardiovascular disease or risk factors; conditions: valsartan for 5 years, along with lifestyle modification; cited from earlier work
[8] = LCZ696 400 mg QD or amlodipine 10 mg QD
[9] = LCZ696 400 mg QD or amlodipine 10 mg QD, listed as AML
[10] = baseline to Day 56, LCZ696 400 mg QD or amlodipine 10 mg QD, 8 weeks
[11] = safety analysis set, 8-week treatment
[12] = 15 min exercise, p=0.014 between groups
[13] = 30 min exercise, p=0.010 between groups

Structure (SMILES) | Glucose infusion rate by body weight (Mbw), Day 56, adjusted mean [1, 8] | Insulin sensitivity index, Day 56, adjusted mean [1, 8] | Glucose in adipose tissue microdialysate, adjusted geometric mean ratio Day 57 vs Day 1 ([2]; 30 + 45 min combined, (95% CI)) | Lactate in adipose tissue microdialysate, adjusted geometric mean ratio Day 57 vs Day 1 ([2]; 30 + 45 min combined, (95% CI)) | Glycerol (free) in adipose tissue microdialysate, adjusted geometric mean ratio Day 57 vs Day 1 ([2]; 30 min time point, (95% CI)) | Glucose in adipose tissue microdialysate, adjusted geometric mean ratio Day 57 vs Day 1 ([2]; 30 min time point, (95% CI)) | Lactate in adipose tissue microdialysate, adjusted geometric mean ratio Day 57 vs Day 1 ([2]; 30 min time point, (95% CI)) | Glycerol (free) in adipose tissue microdialysate, adjusted geometric mean ratio Day 57 vs Day 1 ([2]; 45 min time point, (95% CI)) | Glucose in adipose tissue microdialysate, adjusted geometric mean ratio Day 57 vs Day 1 ([2]; 45 min time point, (95% CI)) | Lactate in adipose tissue microdialysate, adjusted geometric mean ratio Day 57 vs Day 1 ([2]; 45 min time point, (95% CI)) | interstitial glycerol levels at week 8 (subcutaneous adipose tissue lipolysis at rest) [2] | Respiratory quotient (carbon dioxide to oxygen ratio), Day 57 adjusted mean (95% CI) [3] | Resting energy expenditure, Day 57 adjusted mean (95% CI) [3] | mean reduction in msDBP (mean seated diastolic blood pressure) [4] | mean reduction in msSBP (mean seated systolic blood pressure) [4] | Discontinuations due to AEs ([5]; 8-week treatment) | AEs suspected to be study drug related [5, 11] | Peripheral edema reported [5, 11] | overall incidence of AEs [5, 11] | microdialysate glycerol at week 8 [6, 12] | also measured
CCOC(=O)C1=C(COCCN)NC(C)=C(C(=O)OC)C1c1ccccc1Cl (stereo not drawn) [Amlodipine, reference compound] | 3.87 mg/(min * kg) | 1.75 μg/kg * min/(mmol/L * pmol/L) | 0.99 (0.85; 1.16) | 0.90 (0.70; 1.16) | 0.87 (0.76; 0.99) | 1.00 (0.85; 1.16) | 0.91 (0.69; 1.19) | 0.85 (0.74; 0.98) | 0.98 (0.83; 1.16) | 0.90 (0.70; 1.16) | 63.99 µmol/L | 0.77 (0.746; 0.804) | 1991.4 (1904.82; 2078.01) kcal | −10.0±7.8 mmHg | −12.4±14.7 mmHg | three | 46% | 16 patients | 77.1% | 128.8 µmol/L | Glucose infusion rate by body weight (Mbw), Day 56, adjusted mean [1, 9]: 3.88 mg/(min * kg); Insulin sensitivity index, Day 56, adjusted mean [1, 9]: 1.76 μg/kg * min/(mmol/L * pmol/L); Glucose infusion rate by body weight (Mbw), adjusted mean change from baseline [1, 10]: 0.03 mg/(min * kg); Insulin sensitivity index, adjusted mean change from baseline [1, 10]: 0.065 μg/kg * min/(mmol/L * pmol/L); Insulin sensitivity index, adjusted mean change from baseline ([1]; baseline to Day 56, LCZ696 400 mg QD or amlodipine 10 mg QD, 8 weeks, listed as amlodipine): +0.065 μg/kg * min/(mmol/L * pmol/L); Glycerol (free) in adipose tissue microdialysate, adjusted geometric mean ratio Day 57 vs Day 1 ([2]; 30 + 45 min time points combined, (95% CI)): 0.86 (0.75; 0.97); microdialysate glycerol at week 8 [6, 13]: 149.19 µmol/L
CCCCC(=O)N(Cc1ccc(-c2ccccc2-c2nn[n-]n2)cc1)C(C(=O)[O-])C(C)C.CCOC(=O)C(C)CC(Cc1ccc(-c2ccccc2)cc1)NC(=O)CCC(=O)[O-].[Na+].[Na+].[Na+] [LCZ696, trisodium [3-((1S,3R)-1-biphenyl-4-ylmethyl-3-ethoxycarbonyl-1-butylcarbamoyl)propionate-(S)-3′-methyl-2′-(pentanoyl{2″-(tetrazol-5-ylate)biphenyl-4′-ylmethyl}amino)butyrate] hemipentahydrate] | 4.49 mg/(min * kg) | 1.88 μg/kg * min/(mmol/L * pmol/L) and 1.86 μg/kg * min/(mmol/L * pmol/L) | 1.02 (0.88; 1.18) | 0.84 (0.66; 1.06) | 1.02 (0.90; 1.16) | 1.03 (0.86; 1.20) | 0.81 (0.63; 1.04) | 1.07 (0.94; 1.22) | 1.01 (0.86; 1.18) | 0.86 (0.68; 1.09) | 80.53 µmol/L | 0.78 (0.760; 0.814) | 1960.1 (1879.42; 2040.90) kcal | −12.4±9.1 mmHg | −21.0±16.1 mmHg | two | 24% | one | 60.0% | 153.1 µmol/L | Metabolic clearance rate, Day 56, adjusted mean ([1]; Day 56, LCZ696 400 mg QD or amlodipine 10 mg QD): 79.07 mmol·min; Insulin sensitivity index, Treatment Difference (LCZ696-Amlodipine) ([1]; difference in adjusted mean change from baseline to Day 56 (95% CI), not statistically significant): 0.128 (−0.155; 0.410) μg/kg * min/(mmol/L * pmol/L); Glucose infusion rate by body weight (Mbw), Treatment Difference (LCZ696-Amlodipine) ([1]; difference in adjusted mean change from baseline to Day 56 (95% CI), p = 0.016): 0.61 (0.12; 1.11) mg/(min * kg); Metabolic clearance rate, Treatment Difference (LCZ696-Amlodipine) ([1]; difference in adjusted mean change from baseline to Day 56 (95% CI), p = 0.0312): 9.66 (0.89; 18.42) min * mmol; Glucose, Treatment differences, ratio of GMR (LCZ696 vs amlodipine) ([2]; 30 + 45 min combined, (95% CI)): 1.03 (0.83; 1.27); Lactate, Treatment differences, ratio of GMR (LCZ696 vs amlodipine) ([2]; 30 + 45 min combined, (95% CI)): 0.93 (0.65; 1.31); Glucose, Treatment differences, ratio of GMR (LCZ696 vs amlodipine) ([2]; 30 min time point, (95% CI)): 1.03 (0.82; 1.29); Glycerol (free), Treatment differences, ratio of GMR (LCZ696 vs amlodipine) ([2]; 30 min time point, (95% CI)): 1.18 (0.96; 1.43); Lactate, Treatment differences, ratio of GMR (LCZ696 vs amlodipine) ([2]; 30 min time point, (95% CI)): 0.89 (0.62; 1.29); Glucose, Treatment differences, ratio of GMR (LCZ696 vs amlodipine) ([2]; 45 min time point, (95% CI)): 1.03 (0.82; 1.29); Lactate, Treatment differences, ratio of GMR (LCZ696 vs amlodipine) ([2]; 45 min time point, (95% CI)): 0.96 (0.68; 1.36); change in ethanol ratio (indicator of adipose tissue blood flow), between treatment groups ([2]; LCZ696 vs amlodipine, any time point except 45 minute time point in the LCZ696 group (small, not considered relevant)): No significant differences; mild orthostatic hypertension reported ([5]; both resolved by the end of the study, suspected to be related to study drug): Two; Pruritus reported [5, 11]: five; microdialysate glycerol at week 8 [6, 13]: 187.63 µmol/L
CCCCC(=O)N(Cc1ccc(-c2ccccc2-c2nnn[nH]2)cc1)[C@H](C(=O)O)C(C)C [valsartan, S—N-valeryl-N-{[2′-(1H-tetrazole-5-yl)-biphenyl-4-yl]-methyl}-valine] |  |  |  |  |  |  |  |  |  |  |  |  |  |  |  |  |  |  |  |  | relative reduction in the incidence of diabetes [7]: 14%
